Test: Color toner image: light fastness property (xenon light)
Format: physicochemical
Conditions: xenon light 85,000 lux, 5 days
Description: As for each of the phthalocyanine compounds of the invention (compounds 101, 102, 103 and 107), 3 parts by weight of the compound and 100 parts by weight of a resin for toner [styrene-acrylic acid ester copolymer; trade name HIMER TB-1000F (manufactured by Sanyo Chemical Industries, Ltd.)] were mixed and ground in a ball mill. Then, the mixture was heated to 150° C. to be molten and mixed. After cooling, the mixture was coarsely crushed using a hammer mill, and then, finely pulverized by a pulverizer of an air jet system. The resulting particles were further classified, and 1 to 20 micro was selected, resulting in a toner. To 10 parts of the toner, 900 parts of carrier iron powder (trade name EFV250/400; manufactured by Nippon Iron Powder) was uniformly mixed, resulting in a developer. Similarly, each sample of the comparative coloring agents shown in Table-7 were prepared in the same manner, except that the dye was used in an amount of 3 parts by weight, and the pigment was used in an amount of 6 parts by weight. By the use of these developers, copying was carried out by means of a dry ordinary paper electrophotographic copier [trade name NP-5000; manufactured by CANON, Corp.].
Reflected images (images on paper) and transmitted images (OHP images) were formed on paper and OHP sheets, respectively, with a developer using a color toner containing the compounds of the invention in accordance with the foregoing image forming method, and the evaluation tests were conducted in the following manner. Incidentally, the amount of the toner deposited was evaluated in the range of 0.7±0.05 (mg/cm^2).
The light fastness property was evaluated in the following manner. The image density Ci immediately after recording was measured, and thereafter, the image was irradiated with xenon light (85,000 lux) by means of a weather meter (Atlas C. 165), for 5 days. Then, the image density Cf was measured again, and the coloring matter residual ratio ([…]) was determined from the difference in image density between before and after xenon light irradiation. The image density was measured by means of a reflection densitometer (X-Rite 310TR). In Table-7, the case where the coloring matter residual ratio was 90% or more is indicated with ∘; less than 90 to 80%, Δ; and less than 80%, x.

| Compound | Light fastness property |
| --- | --- |
| CNc1ccc(O)c2c1C(=O)c1c(O)ccc(NC)c1C2=O [Comparative dye 5] | Δ (less than 90 to 80%, Δ) |
| Cc1ccc(Nc2ccc(Nc3ccc(C)cc3)c3c2C(=O)c2c(Nc4ccc(C)cc4)ccc(Nc4ccc(C)cc4)c2C3=O)cc1 [Comparative dye 6] | Δ (less than 90 to 80%, Δ) |
| C.I. Solvent Blue 38 | ∘ (the case where the coloring matter residual ratio was 90% or more is indicated with ∘) |
| C.I. Solvent Blue 70 | ∘ (the case where the coloring matter residual ratio was 90% or more is indicated with ∘) |

— patent US7132012B2, “Phthalocyanine compound, ink, ink jet recording method and image forming method” (Fuji Photo Film Co., Ltd., priority 2004, dated 2006)
